Assay results taken from US6130215A, “Piperazinylalkylthiopyrimidine derivatives, pharmaceutical compositions containing the same and a process for the preparation of the novel compounds” (Egis Gyoyszergyar RT, priority 1995, dated 2000).

Experiments:
[1] = target: T1, 5-HT2C receptor (Sus scrofa, UniProt K7GSR7); experiment: 5-HT2C receptor binding ([3H]mesulergine, pig brain choroid plexus membrane preparation); settings: tritiated mesulergine, 37° C., read-out: Inhibition of receptor binding of the radioactive ligand, 5-HT2C (Ki)
T1 construct: pig brain choroid plexus membrane preparation; from tissue; host or cells: pig brain choroid plexus membrane preparation
T1 sequence (K7GSR7 1-457): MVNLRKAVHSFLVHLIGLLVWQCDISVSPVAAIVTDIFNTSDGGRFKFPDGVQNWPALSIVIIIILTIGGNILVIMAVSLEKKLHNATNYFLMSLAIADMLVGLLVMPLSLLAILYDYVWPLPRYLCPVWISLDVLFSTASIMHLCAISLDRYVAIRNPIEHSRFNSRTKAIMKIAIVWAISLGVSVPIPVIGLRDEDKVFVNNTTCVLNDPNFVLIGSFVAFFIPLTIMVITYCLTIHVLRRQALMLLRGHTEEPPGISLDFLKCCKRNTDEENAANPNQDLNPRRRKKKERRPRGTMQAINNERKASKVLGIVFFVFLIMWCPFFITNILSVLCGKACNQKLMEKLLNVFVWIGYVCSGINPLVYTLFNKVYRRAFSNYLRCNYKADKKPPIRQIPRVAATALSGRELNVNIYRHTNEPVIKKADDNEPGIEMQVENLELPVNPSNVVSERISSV
Protocol: (§1) 5-HT2A and 5-HT2C receptor binding was measured according to the methods described by Leysen et al. /Mol. Pharmacol., 21, 301 (1981)/ and Pazos et al. /Eur. J. Pharmacol., 106, 539 (1985)/, respectively. 5-HT2A receptor binding was measured in rat brain frontal cortex membrane preparation using tritiated ketanserine /3-/2-(4-fluorobenzoyl)- -1-piperidinyl/ethyl-2,4-(1H,3H)-quinazoline-dione/(60-90 Ci/mmole) as ligand. 5-HT2C receptor binding was measured in pig brain choroid plexus membrane preparation using tritiated mesulergine /N'-/(8)-1,6-dimethyl-ergoline-8-yl/-N,N-dimethylsulfamide (70-85 Ci/mmole) as the ligand. Non-specific binding to 5-HT2A and 5-HT2C receptors were determined in the presence of 10 micro M cyproheptadine/4-(5H-dibenzo/a,d/cycloheptene-5-ylidene)-1-methylpiperidine/ and 1 micro M mianserine/1,2,3,4,10,14b-hexahydro-2-methyldibenzo-/c,f/pyrazino/1,2-a/azepine/, respectively. The final incubation volumes were 250 and 1000 microlitres. Samples were incubated for 15 and 30 minutes at 37° C. Incubation was stopped by adding 9 ml of ice-cold 50 mM tris(hydroxymethyl)-aminomethane hydrochloride (pH=7.7) to the reaction mixture. The samples were rapidly filtered through Whatman GF/B glass fiber filters using reduced pressure. Before use, the filters were soaked in a 0.05% poly-ethyleneimine solution for 2 to 3 hours. Radioactivity of the filters was determined by a scintillation spectrometer.

[2] = test system: rat stomach fundus smooth muscle; experiment: Inhibition of serotonin-induced contractions of isolated rat stomach fundus smooth muscle; type: cell-based, rat (male Wistar); settings: 5-HT 10^-7 M, 37° C., read-out: Inhibition of 5-HT-evoked contractions of isolated rat stomach fundus, IC50
Protocol: The experiments were performed on male Wistar rats weighing 350 to 400 g. The animals were fasted for 24 hours before the experiments, however, they were allowed to drink tap water ad libitum. The method used was a modified version of Vane et al. /J. Pharmac. Chemother., 12, 344 (1957)/. The rats were killed by decapitation and their stomach was removed, and 3 mm wide and 20 to 30 mm long strips were cut in parallel with the greatest curvature of the stomach. The strips were incubated for 60 minutes in a 6 ml Lucite chamber filled with Tyrode solution (NaCl 136.9 mM, KCl2.7 mM, CaCl2 1.8 mM, MgCl2 1.0 mM, NaHCO3 11.9 mM, glucose 5.6 mM, NaH2 PO4 0.4 mM) warmed to 37° C. and bubbled with a gas consisting of 95% of oxygen and 5% of carbon dioxide. The strips were stretched with 0.5 g during the 60 minutes equilibration time and were washed every 20 minutes. The tension was measured isometrically by a strain gauge (Hugo Sachs) and was recorded on a Graphtech Mark VII 3101 polygraph.
Three control contractions were evoked by 5-HT added to the bath in 10^-7 M concentration (C1, C2, C3).
The effects of the test compounds were determined in 5 increasing concentrations (T2, T3, T4, T5, and T6). After determining the effect of two concentrations of the test compounds, the control 5-HT response was checked after each test measurement.
(§2) IC50 was calculated by nonlinear curve fitting of the inhibitory effect of increasing concentrations of the test compound.

[3] = target: T2, 5-HT2A receptor (Rattus norvegicus, UniProt P14842); experiment: 5-HT2A receptor binding ([3H]ketanserine, rat brain frontal cortex membrane preparation); settings: tritiated ketanserine, 37° C., read-out: Inhibition of receptor binding of the radioactive ligand, 5-HT2A (Ki)
T2 construct: rat brain frontal cortex membrane preparation; from tissue; host or cells: rat brain frontal cortex membrane preparation
T2 sequence (P14842 whole entry): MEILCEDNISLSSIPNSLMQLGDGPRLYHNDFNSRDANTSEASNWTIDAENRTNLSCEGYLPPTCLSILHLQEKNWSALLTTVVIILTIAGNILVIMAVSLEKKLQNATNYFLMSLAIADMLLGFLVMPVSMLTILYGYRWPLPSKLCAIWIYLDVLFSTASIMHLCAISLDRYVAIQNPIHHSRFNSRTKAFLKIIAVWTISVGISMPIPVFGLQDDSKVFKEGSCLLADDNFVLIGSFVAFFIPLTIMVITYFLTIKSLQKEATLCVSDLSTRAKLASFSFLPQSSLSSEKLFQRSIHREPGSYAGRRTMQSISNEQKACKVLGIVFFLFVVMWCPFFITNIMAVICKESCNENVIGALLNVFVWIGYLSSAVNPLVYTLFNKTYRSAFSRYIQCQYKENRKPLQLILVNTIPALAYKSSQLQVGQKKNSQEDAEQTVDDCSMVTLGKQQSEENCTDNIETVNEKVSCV
Protocol: as §1

[4] = target: T3, 5-HT2A receptor (Oryctolagus cuniculus, UniProt G1SYA7); experiment: 5-HT2A receptor antagonistic effect: inhibition of 5-HT-evoked contractions on isolated rabbit aortic strips; type: cell-based, rabbit (New-Zealand, male, white); settings: 5-HT 10^-6 M; phenoxybenzamine 10^-8 M; tranylcypramine 10^-7 M; 10 minutes incubation
T3 construct: The thoracic aorta segment after the aortic arch was removed; from tissue; host or cells: rabbit thoracic aorta, helical strips
T3 sequence (G1SYA7 1-469): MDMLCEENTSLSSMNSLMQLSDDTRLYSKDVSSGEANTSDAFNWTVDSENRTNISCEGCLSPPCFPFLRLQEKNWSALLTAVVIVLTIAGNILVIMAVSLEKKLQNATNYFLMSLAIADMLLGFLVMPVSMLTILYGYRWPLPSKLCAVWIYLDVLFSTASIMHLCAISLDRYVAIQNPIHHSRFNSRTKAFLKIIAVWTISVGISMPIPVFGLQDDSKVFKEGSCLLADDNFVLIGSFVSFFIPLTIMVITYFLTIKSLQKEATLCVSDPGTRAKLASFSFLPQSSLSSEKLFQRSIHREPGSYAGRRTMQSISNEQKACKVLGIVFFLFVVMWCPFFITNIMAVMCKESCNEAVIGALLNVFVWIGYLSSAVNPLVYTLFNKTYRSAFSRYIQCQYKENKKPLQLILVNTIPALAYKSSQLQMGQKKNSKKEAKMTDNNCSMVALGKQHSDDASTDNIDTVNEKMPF
Protocol: New-Zealand, male, white rabbits weighing 2.0 to 2.5 kg were killed by a blow on the head. The thoracic aorta segment after the aortic arch was removed and placed into a Krebs' solution (NaCl 118 mM, KCl 4.6 mM, NaHCO3 25 mM, glucose 10.5 mM, […] 1 mM, KH2PO4 1 mM, CaCl2 2.6 mM). The aorta was carefully cleaned from fat and connective tissue, and was cut into 3 mm wide and 30 mm long helical strips. Four strips were obtained from each rabbit. The strips were equilibrated at 37° C. for 60 minutes in an organ chamber filled with Krebs' solution. The strips were also oxygenated by bubbling carbogen gas (5% of carbon dioxide and 95% of oxygen) through the solution. The strips were stretched by 1 g tension.
The contractions were measured by a Hugo Sachs K-30 type strain gauge, and were registered on a Multicorder type polygraph. During the last 40 minutes of the equilibration, the MAO enzym inhibitor tranylcypramine (10^-7 M) /chemical name: (±)-trans-2-phenylcyclopropylamine/ was also added to the bath.
Any alpha-adrenergic effects of the test compounds were eliminated by 10^-8 M of phenoxybenzamine /N-(2-chloroethyl)-N-(1-methyl-2-phenoxyethyl)benzylamine/ /Clancy et al., J. Pharm. Exp. Ther., 233, 761 (1985). Testing of the serotonergic antagonistic effect was started at the 90th minute of incubation. The stability and reproducibility of the contractile response of the aortic strips to serotonin was tested by two consecutive application and wash-out procedures of 10^-6 M concentration of 5-HT, 40 minutes apart. […] 30 minutes after the second testing, a preset concentration of the test compound was added to the bath, and, after a 10 minutes incubation time, the response to 10^-6 M of 5-HT was determined in the presence of the compound to be tested.
Two different concentrations of a given compound were tested on each aortic strip by the above method. Reproducibility of the control 5-HT-evoked response was checked between testing the two concentrations of the compound.
as §2

[5] = test system: human anxiety; settings: cited from earlier work

`Nc1nc(SCCN2CCN(Cc3ccc([N+](=O)[O-])cc3)CC2)nc(N)c1Cc1ccc(F)cc1` [Example 20, 2-[2-/4-(4-Nitrobenzyl)-1-piperazinyl/-ethylthio]-4,6-diamino-5-(4-fluorobenzyl)-pyrimidine] gave a Ki [1] of over 0.1 µM, an IC50 [2] of 0.56 µM and a Ki [3] of 0.203 µM. For the same molecule, the IC50 [4] was 1.5 µM.

For `COc1ccc(Cc2c(N)nc(SCCN3CCN(Cc4ccccc4)CC3)nc2N)cc1` [Example 22, 2-/2-(4-Benzyl-1-piperazinyl)ethylthio/-4,6-diamino-5-(4-methoxybenzyl)pyrimidine], the Ki [1] was over 0.1 µM, the IC50 [2] was 0.32 µM and the Ki [3] was 0.056 µM. The IC50 [4] was 0.42 µM.

Molecule `COc1cccc(CN2CCN(CCSc3nc(N)c(Cc4ccccc4OC)c(N)n3)CC2)c1` [Example 31, 2-[2-/4-(3-Methoxybenzyl)-1-piperazinyl/-ethylthio]-4,6-diamino-5-(2-methoxybenzyl)-pyrimidine] has a Ki [1] of 0.021 µM, a Ki [3] of over 0.1 µM and an IC50 [4] of 0.73 µM.

In the case of `COc1cccc(CN2CCN(CCSc3nc(N)c(Cc4ccccc4Cl)c(N)n3)CC2)c1` [Example 44, 2-[2-/4-(3-Methoxybenzyl)-1-piperazinyl/-ethylthio]-4,6-diamino-5-(2-chlorobenzyl)-pyrimidine], the Ki [1] is reported as over 0.1 µM, the Ki [3] is reported as 0.093 µM and the IC50 [4] is reported as 0.65 µM.

For `Nc1nc(SCCN2CCN(Cc3ccccc3Cl)CC2)nc(N)c1Cc1ccccc1Cl` [Example 45, 2-[2-/4-(2-Chlorobenzyl)-1-piperazinyl/ethylthio]-4,6-diamino-5-(2-chlorobenzyl)-pyrimidine], the Ki [1] was 0.025 µM, the Ki [3] was 0.027 µM and the IC50 [4] was 0.43 µM.

Work on `Nc1nc(SCCN2CCN(Cc3ccc([N+](=O)[O-])cc3)CC2)nc(N)c1Cc1ccc(Cl)cc1` [Example 48, 2-[2-/4-(4-Nitrobenzyl)-1-piperazinyl/-ethylthio]-4,6-diamino-5-(4-chlorobenzyl)-pyrimidine] yielded an IC50 [2] of 0.42 µM.

In the case of `CN(C)c1ccc(Cc2c(N)nc(SCCN3CCN(Cc4ccccc4F)CC3)nc2N)cc1` [Example 53, 2-[2-/4-(2-Fluorobenzyl)-1-piperazinyl/-ethylthio]-4,6-diamino-5-(4-dimethylamino-benzyl)pyrimidine], the Ki [1] is reported as over 0.1 µM, the Ki [3] is reported as 0.015 µM and the IC50 [4] is reported as 0.47 µM.

In the case of `CN(C)c1ccc(Cc2c(N)nc(SCCN3CCN(Cc4cccc(Cl)c4)CC3)nc2N)cc1` [Example 56, 2-[2-/4-(3-Chlorobenzyl)-1-piperazinyl/-ethylthio]-4,6-diamino-5-(4-dimethylamino-benzyl)pyrimidine], the Ki [1] is reported as 0.057 µM, the Ki [3] is reported as 0.038 µM and the IC50 [4] is reported as 0.9 µM.

Work on `CN(C)c1ccc(Cc2c(N)nc(SCCN3CCN(Cc4ccc([N+](=O)[O-])cc4)CC3)nc2N)cc1` [Example 57, 2-[2-/4-(4-Nitrobenzyl)-1-piperazinyl/-ethylthio]-4,6-diamiiino-5-(4-dimethylamino-benzyl)pyrimidine] yielded a Ki [1] of 0.042 µM, an IC50 [2] of 0.89 µM and a Ki [3] of over 0.1 µM. The IC50 [4] was 0.89 µM.

Molecule `Nc1nc(SCCN2CCN(Cc3ccc([N+](=O)[O-])cc3)CC2)nc(N)c1Cc1ccc(Br)cc1` [Example 64, 2-[2-/4-(4-Nitrobenzyl)-1-piperazinyl/-ethylthio]-4,6-diamino-5-(4-bromo-benzyl)pyrimidine] has an IC50 [2] of 0.68 µM.

With `COc1cccc(CN2CCN(CCSc3nc(N)c(Cc4cc(OC)c(OC)c(OC)c4)c(N)n3)CC2)c1` [Example 65, 2-[2-/4-(3-Methoxybenzyl)-1-piperazinyl/-ethylthio]-4,6-diamino-5-(3,4,5-trimethoxy-benzyl)pyrimidine] the Ki [1] was 0.042 µM, the Ki [3] was 0.034 µM and the IC50 [4] was 0.17 µM.

Molecule `COc1cc(Cc2c(N)nc(SCCN3CCN(Cc4ccccc4Cl)CC3)nc2N)cc(OC)c1OC` [Example 67, 2-[2-/4-(2-Chlorobenzyl)-1-piperazinyl/-ethylthio]-4,6-diamino-5-(3,4,5-trimethoxy-benzyl)pyrimidine] has a Ki [1] of 0.0086 µM, a Ki [3] of 0.0046 µM and an IC50 [4] of 0.039 µM.

Molecule `COc1cc(Cc2c(N)nc(SCCN3CCN(Cc4ccc([N+](=O)[O-])cc4)CC3)nc2N)cc(OC)c1OC` [Example 68, 2-[2-/4-(4-Nitrobenzyl)-1-piperazinyl/-ethylthio]-4,6-diamino-5-(3,4,5-trimethoxy-benzyl)pyrimidine] has a Ki [1] of over 0.1 µM, a Ki [3] of 0.021 µM and an IC50 [4] of 0.78 µM.

With `COc1cc(Cc2c(N)nc(SCCN3CCN(Cc4cccc(C(F)(F)F)c4)CC3)nc2N)cc(OC)c1OC` [Example 69, 2-[2-/4-(3-Trifluoromethylbenzyl)-1-piperazinyl/ethylthio]-4,6-diamino-5-(3,4,5-trimethoxybenzyl)pyrimidine] the Ki [1] was 0.026 µM, the Ki [3] was 0.038 µM and the IC50 [4] was 0.096 µM.

`COc1ccc(Cc2c(N)nc(SCCN3CCN(Cc4ccccc4Cl)CC3)nc2N)cc1` [Example 72, 2-[2-/4-(2-Chlorobenzyl)-1-piperazinyl/-ethylthio]-4,6-diamino-5-(4-methoxy-benzyl)pyrimidine] showed a Ki [1] of 0.02 µM, a Ki [3] of 0.024 µM and an IC50 [4] of 0.084 µM.

In the case of `Cc1nc2sccn2c(=O)c1CCN1CCC(=C(c2ccc(F)cc2)c2ccc(F)cc2)CC1` [ritanserin, 6-[2-14-bis(4-fluorophenyl)methylene/-1-piperidinyl-ethyl]-7-7-methyl-5H-thiazolo/3,2-a/pirimidine-5-one], the “effectiveness for the treatment of different forms of human anxiety” value [5] is given as “effective for the treatment of different forms of human anxiety”.
